We go through two molecules from paper PMC11887843 (Science Advances, 2024).

Read-outs that look alike come from different tables or passages of the source.

Assay [1] deals with T1, caspase-11 (Mus musculus, UniProt P70343).
T1 sequence (P70343 1-80 limits assumed): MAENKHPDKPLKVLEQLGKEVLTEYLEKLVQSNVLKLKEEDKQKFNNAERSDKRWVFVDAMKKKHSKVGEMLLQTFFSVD
As to the kind of experiment: microscale thermophoresis. The format is binding.

In assay [2] the target is T2, AcCARD (uncharacterized CARD-containing protein) (Amphilophus citrinellus, UniProt A0A3Q0SFM2).
T2 sequence (A0A3Q0SFM2 1-92): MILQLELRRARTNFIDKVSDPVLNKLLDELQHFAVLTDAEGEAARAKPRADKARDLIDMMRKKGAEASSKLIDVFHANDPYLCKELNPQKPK
As to the kind of experiment: limited trypsin digestion and blue native PAGE in […] lysates. The format is cell-based.

Assay [3] concerns the target T1, caspase-11. As to the kind of experiment: microscale thermophoresis. The class given is binding. This is another data set of the same source.

In turn, `CCCCCCCCCCCCCCCC(=O)OC[C@@H](O)COP(=O)([O-])OCC[N+](C)(C)C` [16:0 LysoPC, 1-palmitoyl-2-hydroxy-sn-glycero-3-phosphocholine] registered an equilibrium dissociation constant (Kd) in assay [1] of approximately 10 µM.

On to `CCCCCCCCCCCCCCCC(=O)OC[C@H](COP(=O)([O-])OCC[N+](C)(C)C)OC(=O)CCCC(=O)O` [PGPC], for which the “limited trypsin digestion and blue native PAGE in 293T lysates” value in assay [2] was “we found that AcCARD binds PGPC in both native PAGE and limited trypsin digestion assays”. Further, in assay [3], the equilibrium dissociation constant (Kd) was approximately 15 µM.
